Test results published in the supplement of paper PMC10307832.

Experiments:
Experiment in all cases: relative viability (nuclei count vs DMSO), 5 days (fraction); higher = more cells survive
Dovitinib + Crizotinib = compound: CN1CCN(c2ccc3nc(-c4c(N)c5c(F)cccc5[nH]c4=O)[nH]c3c2)CC1 [Dovitinib] + C[C@@H](Oc1cc(-c2cnn(C3CCNCC3)c2)cnc1N)c1c(Cl)ccc(F)c1Cl [Crizotinib] (partner 1 µM)
Method in brief: (§1)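 Medians of duplicate plates are given as relative viability. That measure is the nuclei count in treated wells divided by the count in vehicle wells. Counts were taken on 4× images of lung cancer cell lines in 1536-well plates, 5 days after pin-tool dosing the day after seeding with one drug alone or a fixed anchor-drug dose plus five library-drug doses (not always all listed) in √10 steps.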

Dovitinib + Phenformin = compound: CN1CCN(c2ccc3nc(-c4c(N)c5c(F)cccc5[nH]c4=O)[nH]c3c2)CC1 [Dovitinib] + N=C(N)NC(=N)NCCc1ccccc1 [Phenformin] (partner 250 µM)
Method in brief: as §1

Dovitinib + OSI-027 = compound: CN1CCN(c2ccc3nc(-c4c(N)c5c(F)cccc5[nH]c4=O)[nH]c3c2)CC1 [Dovitinib] + COc1cccc2cc(-c3nc([C@H]4CC[C@H](C(=O)O)CC4)n4ncnc(N)c34)[nH]c12 [OSI-027] (partner 0.5 µM)
Method in brief: as §1

Dovitinib + Trametinib = compound: CN1CCN(c2ccc3nc(-c4c(N)c5c(F)cccc5[nH]c4=O)[nH]c3c2)CC1 [Dovitinib] + CC(=O)Nc1cccc(-n2c(=O)n(C3CC3)c(=O)c3c(Nc4ccc(I)cc4F)n(C)c(=O)c(C)c32)c1 [Trametinib] (partner 0.02 µM)
Method in brief: as §1

Cell Line | relative viability (Dovitinib + Crizotinib; first compound 0.02 µM) | relative viability (Dovitinib + Crizotinib; first compound 0.06325 µM) | relative viability (Dovitinib + Crizotinib; first compound 0.2 µM) | relative viability (Dovitinib + Crizotinib; first compound 0.6325 µM) | relative viability (Dovitinib + Crizotinib; first compound 2 µM) | relative viability (Dovitinib + Phenformin; first compound 0.02 µM) | relative viability (Dovitinib + Phenformin; first compound 0.06325 µM) | relative viability (Dovitinib + Phenformin; first compound 0.2 µM) | relative viability (Dovitinib + Phenformin; first compound 0.6325 µM) | relative viability (Dovitinib + Phenformin; first compound 2 µM) | relative viability (Dovitinib + OSI-027; first compound 0.02 µM) | relative viability (Dovitinib + OSI-027; first compound 0.06325 µM) | relative viability (Dovitinib + OSI-027; first compound 0.2 µM) | relative viability (Dovitinib + OSI-027; first compound 0.6325 µM) | relative viability (Dovitinib + OSI-027; first compound 2 µM) | relative viability (Dovitinib + Trametinib; first compound 0.02 µM) | relative viability (Dovitinib + Trametinib; first compound 0.06325 µM) | relative viability (Dovitinib + Trametinib; first compound 0.2 µM) | relative viability (Dovitinib + Trametinib; first compound 0.6325 µM) | relative viability (Dovitinib + Trametinib; first compound 2 µM)
HCC-366 | 0.571 | 0.6 | 0.486 | 0.61 | 0.562 | 0.628 | 0.6 | 0.636 | 0.57 | 0.641 | 0.807 | 0.829 | 0.848 | 0.914 | 0.791 | 0.405 | 0.379 | 0.338 | 0.323 | 0.371
HCC-827 | 0.91 | 0.867 | 0.932 | 0.93 | 0.94 | 0.395 | 0.402 | 0.426 | 0.41 | 0.405 | 0.797 | 0.791 | 0.818 | 0.833 | 0.759 | 0.553 | 0.553 | 0.565 | 0.603 | 0.57
HOP-62 | 0.861 | 0.923 | 1.15 | 0.943 | 1.01 | 0.616 | 0.713 | 0.742 | 0.55 | 0.646 | 0.794 | 0.79 | 0.866 | 0.925 | 0.855 | 0.368 | 0.386 | 0.397 | 0.392 | 0.352
IA-LM | 0.678 | 0.838 | 0.73 | 0.722 | 0.682 |  |  |  |  |  |  |  |  |  |  |  |  |  |  | 
LC-2-ad | 0.486 | 0.436 | 0.5 | 0.453 | 0.465 | 0.644 | 0.543 | 0.621 | 0.517 | 0.606 | 0.879 | 0.929 | 0.984 | 0.744 | 0.831 | 0.92 | 0.903 | 0.873 | 0.927 | 0.815
LCLC-97TM1 | 0.332 | 0.305 | 0.372 | 0.275 | 0.253 | 0.354 | 0.412 | 0.431 | 0.43 | 0.428 | 0.77 | 0.486 | 0.561 | 0.59 | 0.544 | 0.267 | 0.204 | 0.199 | 0.196 | 0.203
LCLC-103H | 0.992 | 0.978 | 0.993 | 0.946 | 0.916 | 0.357 | 0.331 | 0.336 | 0.345 | 0.305 | 0.415 | 0.477 | 0.523 | 0.452 | 0.479 | 0.683 | 0.723 | 0.622 | 0.556 | 0.667
LK-2 | 0.216 | 0.215 | 0.275 | 0.223 | 0.281 | 0.539 | 0.306 | 0.38 | 0.486 | 0.342 | 0.187 | 0.192 | 0.202 | 0.252 | 0.173 | 0.758 | 0.751 | 0.784 | 0.809 | 0.585
LOU-NH91 | 0.767 | 0.75 | 0.729 | 0.74 | 0.798 | 0.826 | 0.666 | 0.748 | 0.785 | 0.775 | 0.786 | 0.662 | 0.731 | 0.817 | 0.721 | 0.81 | 0.784 | 0.798 | 0.82 | 0.815
LU99A | 0.548 | 0.597 | 0.601 | 0.561 | 0.547 | 0.814 | 0.811 | 0.926 | 0.86 | 0.864 | 0.257 | 0.283 | 0.327 | 0.3 | 0.316 | 0.534 | 0.505 | 0.541 | 0.481 | 0.557
LXF-289 | 0.736 | 0.816 | 0.789 | 0.794 | 0.838 | 0.514 | 0.532 | 0.551 | 0.513 | 0.537 | 0.771 | 0.813 | 0.952 | 0.873 | 0.744 | 0.619 | 0.716 | 0.695 | 0.612 | 0.662
NCI-H23 | 0.539 | 0.531 | 0.526 | 0.421 | 0.554 | 0.888 | 0.843 | 0.746 | 0.737 | 0.754 | 0.486 | 0.599 | 0.665 | 0.605 | 0.534 | 0.391 | 0.446 | 0.376 | 0.4 | 0.378
NCI-H522 |  |  |  |  |  | 0.637 | 0.686 | 0.583 | 0.625 | 0.769 | 0.685 | 0.721 | 0.654 | 0.768 | 0.686 | 0.731 | 0.656 | 0.829 | 0.687 | 0.933
NCI-H1395 |  |  |  |  |  | 0.455 | 0.415 | 0.488 | 0.445 | 0.462 | 0.637 | 0.706 | 0.682 | 0.651 | 0.672 | 1.04 | 0.984 | 1.07 | 1.02 | 1.06
NCI-H1563 | 0.829 | 0.855 | 0.839 | 0.838 | 0.814 | 0.591 | 0.669 | 0.665 | 0.656 | 0.664 | 0.825 | 0.797 | 0.827 | 0.758 | 0.785 |  |  |  |  | 
NCI-H1648 |  |  |  |  |  |  |  |  |  |  | 0.236 | 0.251 | 0.291 | 0.307 | 0.252 | 0.581 | 0.413 | 0.471 | 0.477 | 0.527
NCI-H1703 | 0.651 | 0.836 | 0.779 | 0.547 | 0.31 |  |  |  |  |  |  |  |  |  |  |  |  |  |  | 
NCI-H1793 |  |  |  |  |  | 0.41 | 0.326 | 0.368 | 0.283 | 0.515 | 0.304 | 0.269 | 0.313 | 0.332 | 0.302 | 0.458 | 0.36 | 0.388 | 0.445 | 0.445
NCI-H2342 |  |  |  |  |  | 0.709 | 0.561 | 0.618 | 0.657 | 0.701 | 0.634 | 0.579 | 0.603 | 0.685 | 0.722 | 1.06 | 0.93 | 0.854 | 0.67 | 0.75
SW 900 |  |  |  |  |  | 0.83 | 0.834 | 0.478 | 0.618 | 0.554 | 0.465 | 0.556 | 0.616 | 0.54 | 0.62 | 0.811 | 0.763 | 1.06 | 0.771 | 1.08
